Results: PubChem BioAssay AID1918945 (Molecular Pharmacology Branch, DTP, NCI, 2023)

Tested on: 883617-216-R-J1-PDC complex spheroid viability
Test: Anticancer human tumor 883617-216-R-J1-PDC patient-derived bladder carcinoma cell line growth inhibition
Conditions: for IC50: curve of first compound; for viability, T/C: stronger effect = lower value
Outline: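 Drug combinations with the LSD1 inhibitor iadademstat tested on tumor cells co-cultured as spheroids with endothelial cells and mesenchymal stem cells. Concentrations descended in half-log increments from clinical Cmax or 10 microM.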

[1] = second compound 0.1 µM, first compound 0.0316 µM
[2] = second compound 0.1 µM, first compound 0.1 µM
[3] = second compound 0.1 µM, first compound 0.316 µM
[4] = second compound 0.1 µM, first compound 1 µM
[5] = second compound 0.1 µM, first compound 3.16 µM
[6] = second compound 0.1 µM, first compound 10 µM
[7] = second compound 0.316 µM, first compound 0.0316 µM
[8] = second compound 0.316 µM, first compound 0.1 µM
[9] = second compound 0.316 µM, first compound 0.316 µM
[10] = second compound 0.316 µM, first compound 1 µM
[11] = second compound 0.316 µM, first compound 3.16 µM
[12] = second compound 0.316 µM, first compound 10 µM
[13] = second compound 1 µM, first compound 0.0316 µM
[14] = second compound 1 µM, first compound 0.1 µM
[15] = second compound 1 µM, first compound 0.316 µM
[16] = second compound 1 µM, first compound 1 µM
[17] = second compound 1 µM, first compound 3.16 µM
[18] = second compound 1 µM, first compound 10 µM
[19] = second compound 3.16 µM, first compound 0.0316 µM
[20] = second compound 3.16 µM, first compound 0.1 µM
[21] = second compound 3.16 µM, first compound 0.316 µM
[22] = second compound 3.16 µM, first compound 1 µM
[23] = second compound 3.16 µM, first compound 3.16 µM
[24] = second compound 3.16 µM, first compound 10 µM
[25] = second compound 10 µM, first compound 0.0316 µM
[26] = second compound 10 µM, first compound 0.1 µM
[27] = second compound 10 µM, first compound 0.316 µM
[28] = second compound 10 µM, first compound 1 µM
[29] = second compound 10 µM, first compound 3.16 µM
[30] = second compound 10 µM, first compound 10 µM
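Note: exposure lasted seven days after three days of spheroid growth.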
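Throughout, for viability, T/C: 100% = DMSO vehicle control luminescence.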

SMILES	IC50 (second compound 0.1 µM)	IC50 (second compound 0.316 µM)	IC50 (second compound 1 µM)	IC50 (second compound 3.16 µM)	IC50 (second compound 10 µM)	viability, T/C [1]	viability, T/C [2]	viability, T/C [3]	viability, T/C [4]	viability, T/C [7]	viability, T/C [8]	viability, T/C [9]	viability, T/C [10]	viability, T/C [13]	viability, T/C [14]	viability, T/C [15]	viability, T/C [16]	viability, T/C [19]	viability, T/C [20]	viability, T/C [21]	further results
CC(C)c1c(-c2ccccc2)nc2c(C#N)c[nH]n2c1=O + NC1CC1c1ccc(-c2cccc(O)c2)cc1	> 10000 nM	> 10000 nM	> 10000 nM	> 10000 nM	> 10000 nM	110%	118%	119%	109%	114%	126%	122%	122%	132%	119%	116%	117%	124%	117%	105%	viability, T/C [5]: 113%; viability, T/C [6]: 96%; viability, T/C [11]: 94.8%; viability, T/C [12]: 108%; viability, T/C [17]: 102%; viability, T/C [18]: 109%; viability, T/C [22]: 104%; viability, T/C [23]: 100%; viability, T/C [24]: 94.4%; viability, T/C [25]: 100%; viability, T/C [26]: 93.2%; viability, T/C [27]: 79.8%; viability, T/C [28]: 89.9%; viability, T/C [29]: 96.2%; viability, T/C [30]: 85.3%
CC1COCCN1c1cc(-c2ccnn2C)c2ccnc(-c3ccn[nH]3)c2n1 (stereo not given) + NC1CC1c1ccc(-c2cccc(O)c2)cc1	7.65 nM	8.14 nM	8.58 nM	4.73 nM	3.73 nM	37.2%	29.1%	24.6%	18.8%	35.3%	32.7%	26%	21%	32.8%	29.1%	23.1%	20.4%	30.3%	26.6%	23.2%	viability, T/C (second compound 0.1 µM, first compound 0.00316 µM): 56.5%; viability, T/C (second compound 0.1 µM, first compound 0.01 µM): 49.9%; viability, T/C (second compound 0.316 µM, first compound 0.00316 µM): 63.4%; viability, T/C (second compound 0.316 µM, first compound 0.01 µM): 45.9%; viability, T/C (second compound 1 µM, first compound 0.00316 µM): 60.1%; viability, T/C (second compound 1 µM, first compound 0.01 µM): 49.8%; viability, T/C (second compound 3.16 µM, first compound 0.00316 µM): 56.6%; viability, T/C (second compound 3.16 µM, first compound 0.01 µM): 37.8%; viability, T/C [22]: 19.4%; viability, T/C (second compound 10 µM, first compound 0.00316 µM): 51.2%; viability, T/C (second compound 10 µM, first compound 0.01 µM): 41.9%; viability, T/C [25]: 27.6%; viability, T/C [26]: 25%; viability, T/C [27]: 22.6%; viability, T/C [28]: 19.7%
COc1ccc([C@@H](O)c2cc(-c3ncnc4cc(N5CCOCC5)ccc34)c(F)cc2Cl)nn1 + NC1CC1c1ccc(-c2cccc(O)c2)cc1	877 nM	1030 nM	902 nM	712 nM	304 nM	111%	102%	71.5%	46.1%	109%	93.3%	74.4%	48.8%	113%	98.3%	75%	43.8%	116%	93.8%	58.2%	viability, T/C [5]: 30.6%; viability, T/C [6]: 15.1%; viability, T/C [11]: 31.5%; viability, T/C [12]: 15.3%; viability, T/C [17]: 32.7%; viability, T/C [18]: 15.2%; viability, T/C [22]: 47.2%; viability, T/C [23]: 27%; viability, T/C [24]: 14.3%; viability, T/C [25]: 88%; viability, T/C [26]: 71.9%; viability, T/C [27]: 42.1%; viability, T/C [28]: 39%; viability, T/C [29]: 21.8%; viability, T/C [30]: 12.4%
